Results from patent US10392338B2, “Spirofuranone compounds, derivatives thereof and processes for their preparation” (Yissum Research Development Company of The Hebrew …, priority 2015, dated 2019).
“Also recorded” adds a separate entry of the source.

Tests used:
rTRPV1(Y511G) = rTRPV1(Y511G) (Rattus norvegicus, UniProt O35433, Y511G); details: 300 μM; VBS domain mutated
Protocol: Averaged (n=30 cells) ratiometric calcium responses of HEK293T cells expressing rat TRPV1 (rTRPV1), as a function of time. Application of different SAVA (as indicated; 300 μM; yellow bar) was followed by capsaicin (CAP; 5 μM; red bar). […] Same as B, but recorded from HEK293T cells expressing rTRPV1(Y511G) in which VBS domain is mutated. […] D. Superimposed capsaicin-(1 μM; grey line) and SAVA-(compound 6 in B; 300 μM; black line)-induced currents (Vholding=−40 mV) recorded in whole cell configuration from HEK293T cells expressing the rTRPV1. Recording were done on cells with similar TRPV1 expressing levels (determined by the initial response to pH 5.5). […] E. Current-clamp recording (I=0) in the whole cell configuration from small-diameter (C-fiber) rat TG neurons (P2 old pup).
To verify, that the evoked response of our TRPV1-positive compounds is through the Vanilloid-binding site (VBS), we analyzed their activation profile on TRPV1(Y511 G) construct.
Next, the new scaffolds-evoked TRPV1 currents were analyzed using the voltage-clamp whole-cell configuration of the patch-clamp technique on HEK293T cells stably transfected with the rTRPV1 gene.

[1] = test system: small-diameter (C-fiber) rat TG neurons; assay: Current-clamp whole-cell recording of membrane potential in dissociated TG sensory neurons; assay type: cell-based; details: capsaicin 0.2 μM; current clamp I=0; P2 rat TG neurons
From the text: In dissociated sensory neurons from the trigeminal ganglion (TG) of P2 rat, the inventors have recorded the membrane potential following the application of the different molecules, using current-clamp mode in the whole-cell configuration. […] In contrast, the compound of the invention have evoked slow (in comparison to capsaicin), ˜20 mV depolarization, with no action potential firing (FIG. 16E, upper trace).

Sequence of rTRPV1(Y511G) (O35433 whole entry Y511G, the tested form may be a part): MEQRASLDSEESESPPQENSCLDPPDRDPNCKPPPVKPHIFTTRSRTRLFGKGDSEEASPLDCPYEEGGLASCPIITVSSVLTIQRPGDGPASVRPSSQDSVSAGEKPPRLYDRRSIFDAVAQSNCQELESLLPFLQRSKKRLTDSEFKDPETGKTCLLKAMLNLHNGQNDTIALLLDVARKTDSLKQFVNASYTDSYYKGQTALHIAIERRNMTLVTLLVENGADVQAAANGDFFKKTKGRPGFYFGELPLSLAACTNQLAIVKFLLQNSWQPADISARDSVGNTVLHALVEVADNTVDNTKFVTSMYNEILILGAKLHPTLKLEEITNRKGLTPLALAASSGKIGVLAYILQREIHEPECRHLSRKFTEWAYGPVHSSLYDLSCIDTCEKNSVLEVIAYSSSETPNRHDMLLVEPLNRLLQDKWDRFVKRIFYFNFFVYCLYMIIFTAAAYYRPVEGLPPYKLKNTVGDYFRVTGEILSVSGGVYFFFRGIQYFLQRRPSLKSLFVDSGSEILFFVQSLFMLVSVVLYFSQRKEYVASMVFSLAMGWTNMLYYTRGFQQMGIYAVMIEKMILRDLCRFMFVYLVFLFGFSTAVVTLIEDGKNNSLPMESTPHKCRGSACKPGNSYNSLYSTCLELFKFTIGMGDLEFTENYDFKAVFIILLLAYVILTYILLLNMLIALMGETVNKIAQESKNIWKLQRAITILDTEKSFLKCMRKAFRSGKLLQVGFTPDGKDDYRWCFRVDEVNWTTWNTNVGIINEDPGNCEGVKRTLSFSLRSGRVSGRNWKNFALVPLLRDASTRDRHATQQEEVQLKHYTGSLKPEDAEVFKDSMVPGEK

| calcium response of cells expressing mutant rTRPV1(Y511G) (rTRPV1(Y511G)) | Compound | depolarization and action potential firing [1] |
| --- | --- | --- |
| responded | NCCOB(c1ccccc1)c1ccccc1 [2-APB, 2-aminoethoxydiphenyl borate] | – |
| – | COc1cc(CNC(=O)CCCC/C=C/C(C)C)ccc1O [capsaicin, Capsaicin] | pronounced depolarization and burst of action potentials, followed by depolarization block; also recorded: robust depolarization with burst of action potentials followed by depolarization block |
